Results published in the NIST ThermoML archive (doi:10.1016/j.jct.2016.10.031).
Numbers after ± are expanded uncertainties.

Experiments:
[1] = Molar enthalpy of transition or fusion; conditions: Crystal; Adiabatic calorimetry
[2] = for molar entropy: 101.33 kPa, Small (less than 1 g) adiabatic calorimetry

CC(C)(C)c1ccc(Oc2ccc([N+](=O)[O-])cc2)cc1 [1-(tert-butyl)-4-(4-nitrophenoxy)benzene]
Conditions | Molar enthalpy of transition or fusion [kcal/mol]
[1] | 4.802 ± 0.0406

[2]
Conditions | Glass transition temperature [°C] | Triple point temperature [K] | molar entropy [J/K/mol]
5 K, Crystal | – | – | 0.4639 ± 0.083
10 K, Crystal | – | – | 3.11 ± 0.51
15 K, Crystal | – | – | 7.882 ± 0.76
20 K, Crystal | – | – | 14.05 ± 1.5
25 K, Crystal | – | – | 21.04 ± 0.83
30 K, Crystal | – | – | 28.52 ± 1
35 K, Crystal | – | – | 36.25 ± 1.2
40 K, Crystal | – | – | 44.07 ± 1.7
45 K, Crystal | – | – | 51.97 ± 1.6
50 K, Crystal | – | – | 59.86 ± 1.8
60 K, Crystal | – | – | 75.08 ± 2.3
70 K, Crystal | – | – | 89.8 ± 2.8
80 K, Crystal | – | – | 104.1 ± 3.3
90 K, Crystal | – | – | 117.98 ± 1.9
100 K, Crystal | – | – | 131.7 ± 2.2
110 K, Crystal | – | – | 145.09 ± 2.4
120 K, Crystal | – | – | 158.31 ± 2.4
130 K, Crystal | – | – | 171.36 ± 2.7
140 K, Crystal | – | – | 184.17 ± 2.9
150 K, Crystal | – | – | 196.89 ± 3.2
160 K, Crystal | – | – | 209.52 ± 3.4
170 K, Crystal | – | – | 222 ± 3.4
180 K, Crystal | – | – | 234.38 ± 3.7
190 K, Crystal | – | – | 246.69 ± 3.9
200 K, Crystal | – | – | 259 ± 4
210 K, Crystal | – | – | 271.13 ± 4.2
220 K, Crystal | – | – | 283.27 ± 4.5
230 K, Crystal | – | – | 295.33 ± 4.7
240 K, Crystal | – | – | 307.47 ± 5
250 K, Crystal | – | – | 319.44 ± 5
260 K, Crystal | – | – | 331.5 ± 5.2
270 K, Crystal | – | – | 343.55 ± 5.2
280 K, Crystal | – | – | 355.53 ± 5.5
290 K, Crystal | – | – | 367.58 ± 5.7
298.15 K, Crystal | – | – | 377.39 ± 5.8
300 K, Crystal | – | – | 379.64 ± 6
310 K, Crystal | – | – | 391.78 ± 6.2
320 K, Crystal | – | – | 403.92 ± 6.3
330 K, Crystal | – | – | 416.14 ± 6.6
334.8 K, Crystal | – | – | 422.04 ± 6.6
334.8 K, Liquid | – | – | 482.07 ± 7.3
340 K, Liquid | – | – | 488.97 ± 7.6
350 K, Liquid | – | – | 502.03 ± 7.8
360 K, Liquid | – | – | 514.91 ± 8.1
370 K, Liquid | – | – | 527.55 ± 8.3
Crystal, Adiabatic calorimetry | – | 334.8 ± 0.08 | –
Glass, Adiabatic calorimetry | -39.3 ± 0.2 | – | –
